The target of this assay is human Cav2.2 (Homo sapiens, UniProt Q00975). The experiment in a line: Assessment of calcium channel activity using FLIPR (Ca2+ influx in IMR32 cells). The assay is classed as cell-based. An outline of the steps:
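Human neuroblastoma IMR32 cells were seeded at 1−1.2×10^5 cells/well and cultured 48 h at 37 °C before FLIPR calcium influx measurement. Percent inhibition at each concentration was calculated against the no-inhibitor signal, and IC50 came from sigmoidal dose-response fits.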
Sequence of human Cav2.2 (Q00975 whole entry): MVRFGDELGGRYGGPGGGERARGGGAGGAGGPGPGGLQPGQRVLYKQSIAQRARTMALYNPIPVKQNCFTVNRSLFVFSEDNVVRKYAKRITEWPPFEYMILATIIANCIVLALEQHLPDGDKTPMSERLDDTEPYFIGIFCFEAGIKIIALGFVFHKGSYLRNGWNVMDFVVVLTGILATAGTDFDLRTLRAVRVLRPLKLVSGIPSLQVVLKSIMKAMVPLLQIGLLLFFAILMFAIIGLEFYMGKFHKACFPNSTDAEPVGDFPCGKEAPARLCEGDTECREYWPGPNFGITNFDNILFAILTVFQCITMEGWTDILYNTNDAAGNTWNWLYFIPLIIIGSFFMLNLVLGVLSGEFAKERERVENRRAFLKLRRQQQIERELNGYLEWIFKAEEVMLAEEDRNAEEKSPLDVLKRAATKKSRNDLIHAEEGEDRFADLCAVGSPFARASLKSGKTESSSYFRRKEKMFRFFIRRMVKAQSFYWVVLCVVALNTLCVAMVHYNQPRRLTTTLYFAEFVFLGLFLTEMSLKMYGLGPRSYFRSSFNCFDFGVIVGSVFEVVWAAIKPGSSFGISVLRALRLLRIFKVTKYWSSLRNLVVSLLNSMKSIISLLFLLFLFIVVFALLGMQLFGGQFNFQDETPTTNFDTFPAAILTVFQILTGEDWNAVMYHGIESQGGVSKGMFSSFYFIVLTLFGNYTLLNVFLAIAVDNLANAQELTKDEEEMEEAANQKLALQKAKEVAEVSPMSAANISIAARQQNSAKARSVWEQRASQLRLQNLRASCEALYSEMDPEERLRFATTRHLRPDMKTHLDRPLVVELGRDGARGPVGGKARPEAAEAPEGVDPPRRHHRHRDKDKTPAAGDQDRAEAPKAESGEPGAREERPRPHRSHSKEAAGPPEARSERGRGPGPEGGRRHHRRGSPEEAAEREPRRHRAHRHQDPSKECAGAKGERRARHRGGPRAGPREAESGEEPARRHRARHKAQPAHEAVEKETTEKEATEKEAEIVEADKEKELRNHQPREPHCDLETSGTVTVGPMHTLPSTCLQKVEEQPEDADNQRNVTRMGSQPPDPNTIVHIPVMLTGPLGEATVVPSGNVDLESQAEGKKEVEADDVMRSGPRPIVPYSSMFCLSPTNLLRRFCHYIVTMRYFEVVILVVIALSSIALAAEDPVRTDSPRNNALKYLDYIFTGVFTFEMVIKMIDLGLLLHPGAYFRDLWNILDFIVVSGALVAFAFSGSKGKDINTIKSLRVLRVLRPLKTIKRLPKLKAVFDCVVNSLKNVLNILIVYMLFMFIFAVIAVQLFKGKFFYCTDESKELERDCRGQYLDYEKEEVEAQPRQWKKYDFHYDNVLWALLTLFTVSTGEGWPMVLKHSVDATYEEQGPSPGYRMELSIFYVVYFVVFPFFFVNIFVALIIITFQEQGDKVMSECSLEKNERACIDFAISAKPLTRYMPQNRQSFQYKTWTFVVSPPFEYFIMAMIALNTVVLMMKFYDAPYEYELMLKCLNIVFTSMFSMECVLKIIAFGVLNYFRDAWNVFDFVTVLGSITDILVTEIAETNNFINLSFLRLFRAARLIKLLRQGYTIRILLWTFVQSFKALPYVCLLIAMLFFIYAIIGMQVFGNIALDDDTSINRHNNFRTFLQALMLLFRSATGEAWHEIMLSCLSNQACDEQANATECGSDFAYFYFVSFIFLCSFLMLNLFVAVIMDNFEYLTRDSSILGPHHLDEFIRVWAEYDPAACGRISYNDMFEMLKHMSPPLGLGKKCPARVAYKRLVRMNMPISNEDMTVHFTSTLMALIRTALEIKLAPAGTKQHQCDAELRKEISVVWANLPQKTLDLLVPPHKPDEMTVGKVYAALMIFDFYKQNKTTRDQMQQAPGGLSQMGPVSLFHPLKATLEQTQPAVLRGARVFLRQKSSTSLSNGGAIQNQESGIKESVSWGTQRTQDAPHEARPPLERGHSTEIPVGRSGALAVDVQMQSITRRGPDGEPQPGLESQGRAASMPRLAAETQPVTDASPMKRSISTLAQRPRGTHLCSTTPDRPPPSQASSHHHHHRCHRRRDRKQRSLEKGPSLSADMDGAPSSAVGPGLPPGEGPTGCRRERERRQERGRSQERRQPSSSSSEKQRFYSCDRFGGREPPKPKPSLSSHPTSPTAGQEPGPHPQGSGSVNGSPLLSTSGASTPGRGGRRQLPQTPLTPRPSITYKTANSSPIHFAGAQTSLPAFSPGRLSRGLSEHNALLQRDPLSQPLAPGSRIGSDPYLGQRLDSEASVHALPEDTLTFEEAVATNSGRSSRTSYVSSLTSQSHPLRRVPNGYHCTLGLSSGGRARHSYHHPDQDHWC
Sequence of human Cav2.2 (P54289 25-956 partner limits assumed): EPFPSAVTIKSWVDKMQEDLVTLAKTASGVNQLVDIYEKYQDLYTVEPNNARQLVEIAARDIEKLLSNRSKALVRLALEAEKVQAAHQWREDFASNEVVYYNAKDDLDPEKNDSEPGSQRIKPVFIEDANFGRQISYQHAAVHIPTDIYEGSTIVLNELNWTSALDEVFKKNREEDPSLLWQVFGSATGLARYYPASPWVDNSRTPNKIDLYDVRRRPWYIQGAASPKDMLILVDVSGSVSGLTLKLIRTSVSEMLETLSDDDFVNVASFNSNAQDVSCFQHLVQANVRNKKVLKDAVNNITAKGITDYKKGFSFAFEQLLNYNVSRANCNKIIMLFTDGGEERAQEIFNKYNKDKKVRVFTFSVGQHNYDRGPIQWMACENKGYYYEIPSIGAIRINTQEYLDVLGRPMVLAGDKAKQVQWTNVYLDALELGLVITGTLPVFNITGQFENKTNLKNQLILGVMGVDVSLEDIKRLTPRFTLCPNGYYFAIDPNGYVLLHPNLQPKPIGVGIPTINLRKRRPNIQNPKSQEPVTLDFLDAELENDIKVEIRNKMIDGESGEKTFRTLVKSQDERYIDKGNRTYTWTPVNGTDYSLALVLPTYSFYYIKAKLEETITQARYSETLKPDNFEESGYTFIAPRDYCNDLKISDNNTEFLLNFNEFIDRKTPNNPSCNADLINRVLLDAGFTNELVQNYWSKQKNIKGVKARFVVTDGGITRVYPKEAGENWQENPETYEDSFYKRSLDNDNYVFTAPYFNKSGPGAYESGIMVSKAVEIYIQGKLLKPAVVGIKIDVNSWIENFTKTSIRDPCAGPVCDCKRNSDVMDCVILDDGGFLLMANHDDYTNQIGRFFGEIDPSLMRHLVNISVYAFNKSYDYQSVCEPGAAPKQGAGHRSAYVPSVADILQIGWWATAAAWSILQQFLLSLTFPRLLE
Sequence of human Cav2.2 (P54289 957-1103 partner limits assumed): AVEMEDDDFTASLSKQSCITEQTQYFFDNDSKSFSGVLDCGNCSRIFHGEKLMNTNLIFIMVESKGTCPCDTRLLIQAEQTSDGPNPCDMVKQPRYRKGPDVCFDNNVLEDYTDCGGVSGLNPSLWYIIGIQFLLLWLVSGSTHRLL
Sequence of human Cav2.2 (P54284 whole entry partner): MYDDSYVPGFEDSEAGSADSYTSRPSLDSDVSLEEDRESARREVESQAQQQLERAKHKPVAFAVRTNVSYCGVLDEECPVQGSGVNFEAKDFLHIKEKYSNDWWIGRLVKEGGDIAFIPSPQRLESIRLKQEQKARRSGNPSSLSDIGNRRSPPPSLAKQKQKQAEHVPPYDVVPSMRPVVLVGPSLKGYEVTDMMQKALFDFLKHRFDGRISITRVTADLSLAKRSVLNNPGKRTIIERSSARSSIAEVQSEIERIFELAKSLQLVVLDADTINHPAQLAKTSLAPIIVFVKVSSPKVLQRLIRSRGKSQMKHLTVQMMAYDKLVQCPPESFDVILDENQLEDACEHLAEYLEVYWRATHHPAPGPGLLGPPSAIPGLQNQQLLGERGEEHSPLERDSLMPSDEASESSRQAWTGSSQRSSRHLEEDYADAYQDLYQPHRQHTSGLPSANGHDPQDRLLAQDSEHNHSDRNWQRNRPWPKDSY
Take `Cn1nccc1CN[C@H]1CC[C@@H]2CN(c3cccc(C(F)(F)F)n3)C[C@@H]21` [Example 725, (3aR,4S,6aS)-N-[(1-methyl-1H-pyrazol-5-yl)methyl]-2-[6-(trifluoromethyl)pyridin-2-yl]octahydrocyclopenta[c]pyrrol-4-amine]: the IC50 (commonly the concentration that gives 50% inhibition) was 940 nM. For `FC(F)(F)c1cccc(N2C[C@H]3CC[C@H](NCc4nc(-c5ccccc5)[nH]c4Cl)[C@H]3C2)n1` [Example 726, (3aR,4S,6aS)-N-[(5-chloro-2-phenyl-1H-imidazol-4-yl)methyl]-2-[6-(trifluoromethyl)pyridin-2-yl]octahydrocyclopenta[c]pyrrol-4-amine] the value was 2160 nM. For `FC(F)(F)c1cccc(N2C[C@H]3CC[C@H](NCc4cc5cccnc5s4)[C@H]3C2)n1` [Example 727, (3aR,4S,6aS)-N-(thieno[2,3-b]pyridin-2-ylmethyl)-2-[6-(trifluoromethyl)pyridin-2-yl]octahydrocyclopenta[c]pyrrol-4-amine] the value was 580 nM; for `FC(F)(F)c1cccc(N2C[C@H]3CC[C@H](NCc4cccc5nsnc45)[C@H]3C2)n1` [Example 728, (3aR,4S,6aS)-N-(2,1,3-benzothiadiazol-4-ylmethyl)-2-[6-(trifluoromethyl)pyridin-2-yl]octahydrocyclopenta[c]pyrrol-4-amine], 480 nM.

In the case of `CN[C@@H](CC(C)C)C(=O)N[C@H]1CC[C@@H]2CN(c3cccc(F)c3F)C[C@@H]21` [Example 730, N-[(3aR,4S,6aS)-2-(2,3-difluorophenyl)octahydrocyclopenta[c]pyrrol-4-yl]-N^2-methyl-L-leucinamide], the half-inhibitory concentration (IC50) is 1260 nM. As for `Cn1c(CN[C@H]2CC[C@@H]3CN(c4cccc(C(F)(F)F)n4)C[C@@H]32)nc2ccccc21` [Example 731, (3aR,4S,6aS)-N-[(1-methyl-1H-benzimidazol-2-yl)methyl]-2-[6-(trifluoromethyl)pyridin-2-yl]octahydrocyclopenta[c]pyrrol-4-amine], the IC50 came out at 940 nM. The result for `FC(F)(F)c1cccc(N2C[C@H]3CC[C@H](NCc4ccc5nsnc5c4)[C@H]3C2)n1` [Example 732, (3aR,4S,6aS)-N-(2,1,3-benzothiadiazol-5-ylmethyl)-2-[6-(trifluoromethyl)pyridin-2-yl]octahydrocyclopenta[c]pyrrol-4-amine] reads 560 nM; that for `CN[C@@H](CC(C)C)C(=O)N[C@H]1CC[C@@H]2CN(c3nnc(C(F)(F)F)s3)C[C@@H]21` [Example 734, N^2-methyl-N-{(3aR,4S,6aS)-2-[5-(trifluoromethyl)-1,3,4-thiadiazol-2-yl]octahydrocyclopenta[c]pyrrol-4-yl}-L-leucinamide], 26400 nM. The result for `CN[C@@H](CC(C)C)C(=O)N[C@H]1CC[C@@H]2CN(c3cncc(C(F)(F)F)c3)C[C@@H]21` [Example 736, N^2-methyl-N-{(3aR,4S,6aS)-2-[5-(trifluoromethyl)pyridin-3-yl]octahydrocyclopenta[c]pyrrol-4-yl}-L-leucinamide] reads 3340 nM; that for `CN[C@@H](CC(C)C)C(=O)N[C@H]1CC[C@@H]2CN(c3ccc(F)cc3C(F)(F)F)C[C@@H]21` [Example 737, N-{(3aR,4S,6aS)-2-[4-fluoro-2-(trifluoromethyl)phenyl]octahydrocyclopenta[c]pyrrol-4-yl}-N^2-methyl-L-leucinamide], 360 nM; that for `CN[C@@H](CC(C)C)C(=O)N[C@@H]1CC[C@H]2CN(c3ccc(C(F)(F)F)cn3)C[C@H]21` [Example 738, N^2-methyl-N-{(3aS,4R,6aR)-2-[5-(trifluoromethyl)pyridin-2-yl]octahydrocyclopenta[c]pyrrol-4-yl}-L-leucinamide], 2980 nM.

Consider `CN[C@@H](CC(C)C)C(=O)N[C@@H]1CC[C@H]2CN(c3ccc(C(F)(F)F)cc3)C[C@H]21` [Example 740, N^2-methyl-N-{(3aS,4R,6aR)-2-[4-(trifluoromethyl)phenyl]octahydrocyclopenta[c]pyrrol-4-yl}-L-leucinamide], for which the IC50 came out at 2000 nM.

These data come from patent publication US8691865B2 (AbbVie Inc., priority 2008, dated 2014).
